From patent publication US20050170431A1, “PYK2 crystal structure and uses” (Plexxikon, Inc., priority 2003, published 2005) come the findings set out here.

This assay has as its target T1, Pyk2 kinase domain residues 419 to 691 (Homo sapiens, UniProt Q14289).
T1 construct: PYK2 kinase domain I420-M691 (not including first 21 aa in); made in house; host or cells: E. coli BL21 (DE3) pLysS
The assay is described as follows: PYK2 kinase activity assay in AlphaScreen, inhibition by ATP analogs. As to conditions: Pyk2 at 8 ng/well and ATP at 10 uM; read-out: affinity with Pyk2. Format: biochemical. The method, then: As an exemplary kinase assay, the kinase activity of PYK2 was measured in AlphaScreening (Packard BioScience). The kinase buffer (HMNB) contains HEPES 50 mM at pH7.2, Mg/Mn 5 mM each, NP-40 0.1%, and BSA at final 50 ug/ml. AlphaScreening is conducted as described by the manufacturer. In brief, the kinase reaction is performed in 384-well plate in 25 ul volume. The substrate is biotin-(E4Y)3 at final concentration of 1 nM. The final concentration of ATP is 10 uM. For compound testing the final DMSO concentration is 1%. The reaction is incubated in 31° C. for 1 hour.
The Pyk2 kinase domain residues 419 to 691 is an active kinase in AlphaScreen. […] Inhibition by ATP analogs was tested with Pyk2 at 8 ng/well and ATP at 10 uM. […] Adenosine and AMP-PCP have little effect on PYK2 in the concentration tested.
Background: Bead proximity is the source of the signal in Alpha formats.

T1 sequence (Q14289 420-691): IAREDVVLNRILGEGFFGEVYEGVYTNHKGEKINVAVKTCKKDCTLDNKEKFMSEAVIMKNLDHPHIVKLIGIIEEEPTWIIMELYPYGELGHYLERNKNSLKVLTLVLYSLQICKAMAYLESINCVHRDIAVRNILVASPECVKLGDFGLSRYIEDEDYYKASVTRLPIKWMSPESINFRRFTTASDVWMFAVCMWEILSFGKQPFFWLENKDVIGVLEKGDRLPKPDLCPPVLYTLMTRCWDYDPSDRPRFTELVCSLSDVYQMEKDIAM

With `Nc1ncnc2c1ncn2[C@@H]1O[C@H](COP(=O)(O)OP(=O)(O)O)[C@@H](O)[C@H]1O` [ADT, ADP], the IC50 came out at 14 µM.
As for `Nc1ncnc2c1ncn2[C@@H]1O[C@H](COP(=O)(O)OP(=O)(O)OP(O)(O)=S)[C@@H](O)[C@H]1O` [ATP-g-S], the IC50 is 14 µM.
